Active and inactive are the calls of the source. The calls are words filed in the database; no cut-off is given here.
Legend:
[1] = Clearance in CF-1 mouse at 2 mg/kg, iv; assay type: ADME, organism-based; set-up: dose 2 mg/kg, route intravenous; conditions: in vivo
[2] = Ratio of fAUC (24 hrs) for community-associated methicillin-resistant Staphylococcus aureus OC8525 infected sc dosed mouse to MIC for community-associated methicillin-resistant Staphylococcus aureus OC8525; assay type: functional
Staphylococcus aureus [3] = experiment: Antibacterial activity against methicillin-susceptible Staphylococcus aureus ATCC 13709 infected in sc dosed Swiss Webster mouse administered at 1 to 3 hrs post infection measured after 3 days; assay type: functional; conditions: ATCC 13709, sc
Streptococcus pneumoniae [4] = experiment: Antibacterial activity against penicillin-susceptible Streptococcus pneumoniae ATCC 6301 infected in sc dosed Swiss Webster mouse administered at 1 to 3 hrs post infection measured after 3 days; assay type: functional; conditions: ATCC 6301, sc
Staphylococcus aureus [5] = experiment: Antibacterial activity against methicillin-susceptible Staphylococcus aureus ATCC 13709 infected in iv dosed Swiss Webster mouse administered at 1 to 3 hrs post infection measured after 3 days; assay type: functional; conditions: ATCC 13709, iv
[6] = Ratio of fAUC (24 hrs) for Methicillin-susceptible Staphylococcus aureus ATCC 13709 infected po dosed mouse to MIC for Methicillin-susceptible Staphylococcus aureus ATCC 1370; assay type: functional
[7] = Ratio of fAUC (24 hrs) for Methicillin-susceptible Staphylococcus aureus ATCC 13709 infected sc dosed mouse to MIC for Methicillin-susceptible Staphylococcus aureus ATCC 1370; assay type: functional
[8] = Ratio of fAUC (24 hrs) for penicillin-susceptible Streptococcus pneumoniae ATCC 6301 infected iv dosed mouse to MIC for penicillin-susceptible Streptococcus pneumoniae ATCC 6301; assay type: functional
[9] = Half life in CF-1 mouse at 2 mg/kg, iv; assay type: ADME, organism-based; set-up: dose 2 mg/kg, route intravenous; conditions: in vivo
[10] = Ratio of fAUC (24 hrs) for penicillin-susceptible Streptococcus pneumoniae ATCC 6301 infected po dosed mouse to MIC for penicillin-susceptible Streptococcus pneumoniae ATCC 6301; assay type: functional
[11] = Cmax in CF-1 mouse at 2 mg/kg, iv; assay type: ADME, organism-based; set-up: dose 2 mg/kg, route intravenous; conditions: in vivo
Staphylococcus aureus [12] = experiment: Antibacterial activity against community-associated methicillin-resistant Staphylococcus aureus OC8525 infected in iv dosed Swiss Webster mouse administered at 1 to 3 hrs post infection measured after 3 days; assay type: functional
Staphylococcus aureus [13] = experiment: Antibacterial activity against community-associated methicillin-resistant Staphylococcus aureus OC8525 infected in sc dosed Swiss Webster mouse administered at 1 to 3 hrs post infection measured after 3 days; assay type: functional
[14] = AUC (0 to 24 hrs) in CF-1 mouse at 2 mg/kg, iv; assay type: ADME, organism-based; set-up: time < 24 hr, dose 2 mg/kg, route intravenous; conditions: plasma
[15] = Ratio of fAUC (24 hrs) for penicillin-susceptible Streptococcus pneumoniae ATCC 6301 infected sc dosed mouse to MIC for penicillin-susceptible Streptococcus pneumoniae ATCC 6301; assay type: functional
[16] = Ratio of fAUC (24 hrs) for community-associated methicillin-resistant Staphylococcus aureus OC8525 infected po dosed mouse to MIC for community-associated methicillin-resistant Staphylococcus aureus OC8525; assay type: functional
Mus musculus [17] = experiment: fAUC (0 to 24 hrs) in CF-1 mouse at 10 mg/kg, po; assay type: ADME, organism-based; set-up: dose 10 mg/kg, route oral; conditions: in vivo
Mus musculus [18] = experiment: fCmax in CF-1 mouse at 10 mg/kg, sc; assay type: ADME, organism-based; set-up: dose 10 mg/kg, route subcutaneous; conditions: in vivo
[19] = AUC (0 to 24 hrs) in CF-1 mouse at 10 mg/kg, po; assay type: ADME, organism-based; set-up: time < 24 hr, dose 10 mg/kg, route oral; conditions: plasma
[20] = Half life in CF-1 mouse at 10 mg/kg, sc; assay type: ADME, organism-based; set-up: dose 10 mg/kg, route subcutaneous; conditions: in vivo
Streptococcus pneumoniae [21] = experiment: Antibacterial activity against penicillin-susceptible Streptococcus pneumoniae ATCC 6301 infected in po dosed Swiss Webster mouse administered at 1 to 3 hrs post infection measured after 3 days; assay type: functional; conditions: ATCC 6301, po
Streptococcus pneumoniae [22] = experiment: Antibacterial activity against penicillin-susceptible Streptococcus pneumoniae ATCC 6301 infected in iv dosed Swiss Webster mouse administered at 1 to 3 hrs post infection measured after 3 days; assay type: functional; conditions: ATCC 6301, iv
Mus musculus [23] = experiment: fCmax in CF-1 mouse at 2 mg/kg, iv; assay type: ADME, organism-based; set-up: dose 2 mg/kg, route intravenous; conditions: in vivo
Mus musculus [24] = experiment: fAUC (0 to 24 hrs) in CF-1 mouse at 2 mg/kg, iv; assay type: ADME, organism-based; set-up: dose 2 mg/kg, route intravenous; conditions: in vivo
[25] = Apparent oral clearance in CF-1 mouse at 10 mg/kg, sc; assay type: ADME, organism-based; set-up: dose 10 mg/kg, route oral; conditions: in vivo
Staphylococcus aureus [26] = experiment: Antibacterial activity against methicillin-susceptible Staphylococcus aureus ATCC 13709 infected in po dosed Swiss Webster mouse administered at 1 to 3 hrs post infection measured after 3 days; assay type: functional; conditions: ATCC 13709, po
Staphylococcus aureus [27] = experiment: Bacteriostatic activity against methicillin-susceptible Staphylococcus aureus Smith ATCC 13709 infected in SKH1 mouse upto 320 mg/kg/day, po administered post infection measured after 48 hrs; assay type: functional, organism-based
Mus musculus [28] = experiment: fCmax in CF-1 mouse at 10 mg/kg, po; assay type: ADME, organism-based; set-up: dose 10 mg/kg, route oral; conditions: in vivo
[29] = Tmax in CF-1 mouse serum at 10 mg/kg, po; assay type: ADME, organism-based; set-up: dose 10 mg/kg, route oral
[30] = Cmax in CF-1 mouse at 10 mg/kg, po; assay type: ADME, organism-based; set-up: dose 10 mg/kg, route oral; conditions: in vivo
Mus musculus [31] = experiment: fAUC (0 to 24 hrs) in CF-1 mouse at 10 mg/kg, sc; assay type: ADME, organism-based; set-up: dose 10 mg/kg, route subcutaneous; conditions: in vivo
[32] = Half life in CF-1 mouse at 10 mg/kg, po; assay type: ADME, organism-based; set-up: dose 10 mg/kg, route oral; conditions: in vivo
[33] = Ratio of fAUC (24 hrs) for Methicillin-susceptible Staphylococcus aureus ATCC 13709 infected iv dosed mouse to MIC for Methicillin-susceptible Staphylococcus aureus ATCC 1370; assay type: functional
Staphylococcus aureus [34] = experiment: Antibacterial activity against community-associated methicillin-resistant Staphylococcus aureus OC8525 infected in po dosed Swiss Webster mouse administered at 1 to 3 hrs post infection measured after 3 days; assay type: functional
[35] = Apparent oral clearance in CF-1 mouse at 10 mg/kg, po; assay type: ADME, organism-based; set-up: dose 10 mg/kg, route oral; conditions: in vivo
Streptococcus pneumoniae [36] = experiment: Antibacterial activity against penicillin-susceptible Streptococcus pneumoniae ATCC 6301 infected in po dosed CF-1 mouse administered at 24 hrs post infection measured after 48 hrs relative to Linezolid; assay type: functional; conditions: Streptococcus pneumoniae, ATCC 6301, po
[37] = Ratio of fAUC (24 hrs) for community-associated methicillin-resistant Staphylococcus aureus OC8525 infected iv dosed mouse to MIC for community-associated methicillin-resistant Staphylococcus aureus OC8525; assay type: functional
[38] = Tmax in CF-1 mouse serum at 10 mg/kg, sc; assay type: ADME, organism-based; set-up: dose 10 mg/kg, route subcutaneous
[39] = Cmax in CF-1 mouse at 10 mg/kg, sc; assay type: ADME, organism-based; set-up: dose 10 mg/kg, route subcutaneous; conditions: in vivo
[40] = AUC (0 to 24 hrs) in CF-1 mouse at 10 mg/kg, sc; assay type: ADME, organism-based; set-up: time < 24 hr, dose 10 mg/kg, route subcutaneous; conditions: plasma

SMILES: CC(=O)NC[C@H]1CN(c2ccc(N3CCOCC3)c(F)c2)C(=O)O1 [LINEZOLID]
- clearance [1]: 15.7 mL/min/kg
- fAUC/MIC [2]: 2.6
- ED50 (Staphylococcus aureus [3]): 7 mg/kg/day
- ED50 (Streptococcus pneumoniae [4]): 20 mg/kg/day
- ED50 (Staphylococcus aureus [5]): 6.3 mg/kg/day
- fAUC/MIC [6]: 6.6
- fAUC/MIC [7]: 5.3
- fAUC/MIC [8]: 3.6
- half-life [9]: 30 min
- fAUC/MIC [10]: 6.6
- Cmax [11]: 3300 ng/mL
- ED50 (Staphylococcus aureus [12]): 8.5 mg/kg/day
- ED50 (Staphylococcus aureus [13]): 3.7 mg/kg/day
- AUC(0-t) at 24 h [14]: 2100 ng·h/mL
- fAUC/MIC [15]: 5.3
- fAUC/MIC [16]: 3.3
- fAUC (Mus musculus [17]): 13000 ng·h/mL
- fCmax (Mus musculus [18]): 7.1 µg/mL
- AUC(0-t) at 24 h [19]: 19000 ng·h/mL
- half-life [20]: 48 min
- ED50 (Streptococcus pneumoniae [21]): 14 mg/kg/day
- ED50 (Streptococcus pneumoniae [22]): > 40 mg/kg/day
- fCmax (Mus musculus [23]): 2.3 µg/mL
- fAUC (Mus musculus [24]): 1400 ng·h/mL
- CL/F [25]: 10.7 mL/min/kg
- ED50 (Staphylococcus aureus [26]): 6.4 mg/kg/day
- Activity (Staphylococcus aureus [27]): Active
- fCmax (Mus musculus [28]): 6 µg/mL
- Tmax [29]: ≤ 7.8 min
- Cmax [30]: 8900 ng/mL
- fAUC (Mus musculus [31]): 11000 ng·h/mL
- half-life [32]: 84 min
- fAUC/MIC [33]: 3.6
- ED50 (Staphylococcus aureus [34]): 5.1 mg/kg/day
- CL/F [35]: 8.67 mL/min/kg
- ED50 (Streptococcus pneumoniae [36]): ≥ 14 mg/kg/day
- fAUC/MIC [37]: 1.8
- Tmax [38]: ≤ 7.8 min
- Cmax [39]: 11000 ng/mL
- AUC(0-t) at 24 h [40]: 16000 ng·h/mL

Source: ChEMBL document CHEMBL1671654, “In vivo activity of the pyrrolopyrazolyl-substituted oxazolidinone RWJ-416457” (Antimicrob Agents Chemother, 2009)
